Where “and” joins values, the source holds several entries; their conditions need not be identical. Equal entries are not always repeated.
Experiments:
healthy male Wistar rats [1] = assay: Series 2: BMOV cumulative infusion during adrenaline (or saline) infusion, blood glucose; assay type: in vivo, rat
Procedure: Glucose levels were measured at t=0, 120, 140, 160, 180 and 200 min.
Blood glucose levels were measured at each time point in duplicates by directly dripping blood onto DCont TREND test strips (77 Elektronika, Budapest, Hungary). […] Blood samples were centrifuged at 4.000 rpm at 4° C. for 15 min. The prepared, separated samples derived from the centrifuged plasma (total volume 200 μl) were kept at −70° C. until shipment.

healthy male Wistar rats [2] = assay: Example 2: BMOV pre-treatment before adrenaline-induced stress hyperglycemia, blood glucose; assay type: in vivo, rat
Procedure: See Table 8 and Table 9 for further details.
Measurement of glucose levels was performed by DCont TREND glucometer. DCont TREND test strips (77 Elektronika, http://www.regolymedical.hu/en/measuring-tools-and-surgicalinstruments/vercukormero-d-cont-trend.html), in duplicate in order to determine blood glucose levels. See Table 9 for the blood sampling regime during the course of the experiment.

[3] = Saline + BMOV group, 0 min, before saline and BMOV
[4] = Saline + BMOV group, 120 min of saline, before BMOV dose 1
[5] = Saline + BMOV group, 140 min, after BMOV 1 (0.34 mg/kg iv over 20 min)
[6] = Saline + BMOV group, 180 min, after BMOV 3 (2.89 mg/kg, cumulative)
[7] = Saline + BMOV group, 200 min, after BMOV 4 (8.50 mg/kg, cumulative)
[8] = Tonogen + BMOV group (adrenaline 1 μg/kg/min), 0 min, before adrenaline and BMOV
[9] = Tonogen + BMOV group, 120 min of adrenaline, before BMOV dose 1
[10] = Tonogen + 1x BMOV (15 mg/kg ip 3 h before adrenaline 0.3 microgram/kg/min), 0 min
[11] = Tonogen + 1x BMOV (15 mg/kg ip 3 h before adrenaline), 30 min
[12] = Tonogen + 1x BMOV (15 mg/kg ip 3 h before adrenaline), 60 min
[13] = Tonogen + 1x BMOV (15 mg/kg ip 3 h before adrenaline), 90 min
[14] = Tonogen + 1x BMOV (15 mg/kg ip 3 h before adrenaline), 120 min
[15] = Tonogen + 1x BMOV (15 mg/kg ip 3 h before adrenaline), 150 min
[16] = Tonogen + 1x BMOV (15 mg/kg ip 3 h before adrenaline), 180 min
[17] = Tonogen + 2x BMOV (15 mg/kg ip 16-24 h and 3 h before adrenaline 0.3 microgram/kg/min), 0 min
[18] = Tonogen + 2x BMOV (15 mg/kg ip 16-24 h and 3 h before adrenaline), 30 min
[19] = Tonogen + 2x BMOV (15 mg/kg ip 16-24 h and 3 h before adrenaline), 60 min
[20] = Tonogen + 2x BMOV (15 mg/kg ip 16-24 h and 3 h before adrenaline), 90 min
[21] = Tonogen + 2x BMOV (15 mg/kg ip 16-24 h and 3 h before adrenaline), 120 min
[22] = Tonogen + 2x BMOV (15 mg/kg ip 16-24 h and 3 h before adrenaline), 150 min
[23] = Tonogen + 2x BMOV (15 mg/kg ip 16-24 h and 3 h before adrenaline), 180 min
[24] = two doses of BMOV at different time points before stress

Cc1occc(=O)c1[O-].Cc1occc(=O)c1[O-].[O]=[V+2] [BMOV, Bis(maltolato)oxovanadium]
Effect on the increase of the glucose level (healthy male Wistar rats [1]; BMOV administered after the start of and during continued stress (adrenaline infusion)): lowers the extent of the increase of the glucose level | Blood glucose level, individual animal in duplicate (healthy male Wistar rats [1]; [3]): 4.7 mM/l and 4.8 mM/l | Blood glucose level, mean (healthy male Wistar rats [1]; [3]): 4.75 mM/l | Blood glucose level, individual animal in duplicate (healthy male Wistar rats [1]; [4]): 5.7 mM/l and 5.3 mM/l | Blood glucose level, mean (healthy male Wistar rats [1]; [4]): 5.50 mM/l | Blood glucose level, individual animal in duplicate (healthy male Wistar rats [1]; [5]): 6.3 mM/l | Blood glucose level, mean (healthy male Wistar rats [1]; [5]): 6.30 mM/l | Blood glucose level, mean (healthy male Wistar rats [1]; Saline + BMOV group, 160 min, after BMOV 2 (1.02 mg/kg, cumulative)): 6.60 mM/l | Blood glucose level, individual animal in duplicate (healthy male Wistar rats [1]; Saline + BMOV group, 160 min, after BMOV 2 (1.02 mg/kg, cumulative), 1.02 mg/kg): 6.5 mM/l and 6.7 mM/l | Blood glucose level, individual animal in duplicate (healthy male Wistar rats [1]; [6]): 5.9 mM/l | Blood glucose level, mean (healthy male Wistar rats [1]; [6]): 5.90 mM/l | Blood glucose level, individual animal in duplicate (healthy male Wistar rats [1]; [7]): 3.8 mM/l | Blood glucose level, mean (healthy male Wistar rats [1]; [7]): 3.80 mM/l | Blood glucose level, individual animals in duplicate (healthy male Wistar rats [1]; [8]): 8.4 mM/l and 7.8 mM/l and 6.0 mM/l (2×) | Blood glucose level, mean (healthy male Wistar rats [1]; [8]): 7.05 mM/l | Blood glucose level, individual animals in duplicate (healthy male Wistar rats [1]; [9]): 16.4 mM/l and 16.5 mM/l and 11.7 mM/l and 11.2 mM/l | Blood glucose level, mean (healthy male Wistar rats [1]; [9]): 13.95 mM/l | Blood glucose level, mean (healthy male Wistar rats [1]; Tonogen + BMOV group, 140 min, after BMOV 1 (0.34 mg/kg iv over 20 min)): 15.55 mM/l | Blood glucose level, individual animals in duplicate (healthy male Wistar rats [1]; Tonogen + BMOV group, 140 min, after BMOV 1 (0.34 mg/kg iv over 20 min), 0.34 mg/kg): 17.9 mM/l and 17.5 mM/l and 13.5 mM/l and 13.3 mM/l | Blood glucose level, mean (healthy male Wistar rats [1]; Tonogen + BMOV group, 160 min, after BMOV 2 (1.02 mg/kg, cumulative)): 15.18 mM/l | Blood glucose level, individual animals in duplicate (healthy male Wistar rats [1]; Tonogen + BMOV group, 160 min, after BMOV 2 (1.02 mg/kg, cumulative), 1.02 mg/kg): 14.6 mM/l and 14.5 mM/l and 15.7 mM/l and 15.9 mM/l | Blood glucose level, mean (healthy male Wistar rats [1]; Tonogen + BMOV group, 180 min, after BMOV 3 (2.89 mg/kg, cumulative)): 11.03 mM/l | Blood glucose level, individual animals in duplicate (healthy male Wistar rats [1]; Tonogen + BMOV group, 180 min, after BMOV 3 (2.89 mg/kg, cumulative), 2.89 mg/kg): 7.8 mM/l and 7.9 mM/l and 14.2 mM/l (2×) | Blood glucose level, mean (healthy male Wistar rats [1]; Tonogen + BMOV group, 200 min, after BMOV 4 (8.50 mg/kg, cumulative)): 7.28 mM/l | Blood glucose level, individual animals in duplicate (healthy male Wistar rats [1]; Tonogen + BMOV group, 200 min, after BMOV 4 (8.50 mg/kg, cumulative), 8.5 mg/kg): 4.3 mM/l and 4.4 mM/l and 10.1 mM/l and 10.3 mM/l | Effect on hyperglycemia compared to adrenaline+vehicle control group (healthy male Wistar rats [1]; adrenaline 1 μg/kg/min, at 160-180 min): significantly decreased hyperglycemia | Effect of pretreatment on occurrence of hyperglycemia (healthy male Wistar rats [2]; BMOV 3 h before stress, or at 16-24 h and 3 h before stress (adrenaline infusion)): surprisingly high reduction of the occurrence of hyperglycemia | Blood glucose, individual animals in duplicate (healthy male Wistar rats [2]; [10]): 6.1 mM/l and 6.7 mM/l and 5.1 mM/l and 4.9 mM/l and 6.3 mM/l and 5.9 mM/l | Blood glucose, mean (healthy male Wistar rats [2]; [10]): 5.833 mM/l | Blood glucose, individual animals in duplicate (healthy male Wistar rats [2]; [11]): 6.9 mM/l (2×) and 5.1 mM/l and 5.9 mM/l and 7.5 mM/l and 7.2 mM/l | Blood glucose, mean (healthy male Wistar rats [2]; [11]): 6.583 mM/l | Blood glucose, individual animals in duplicate (healthy male Wistar rats [2]; [12]): 8.4 mM/l and 8 mM/l and 6 mM/l (2×) and 9.7 mM/l and 10 mM/l | Blood glucose, mean (healthy male Wistar rats [2]; [12]): 8.017 mM/l | Blood glucose, individual animals in duplicate (healthy male Wistar rats [2]; [13]): 9.4 mM/l and 9.2 mM/l and 9.8 mM/l and 9.7 mM/l and 8.6 mM/l and 9 mM/l | Blood glucose, mean (healthy male Wistar rats [2]; [13]): 9.283 mM/l | Blood glucose, individual animals in duplicate (healthy male Wistar rats [2]; [14]): 10.7 mM/l and 11.2 mM/l and 12.2 mM/l and 11.5 mM/l and 4.6 mM/l and 4.7 mM/l | Blood glucose, mean (healthy male Wistar rats [2]; [14]): 9.15 mM/l | Blood glucose, individual animals in duplicate (healthy male Wistar rats [2]; [15]): 12.3 mM/l and 12.6 mM/l and 11.7 mM/l and 11.6 mM/l | Blood glucose, mean (healthy male Wistar rats [2]; [15]): 12.05 mM/l | Blood glucose, individual animals in duplicate (healthy male Wistar rats [2]; [16]): 12.4 mM/l and 12.2 mM/l and 11.9 mM/l (2×) | Blood glucose, mean (healthy male Wistar rats [2]; [16]): 12.1 mM/l | Blood glucose, individual animals in duplicate (healthy male Wistar rats [2]; [17]): 5.2 mM/l (2×) and 5.4 mM/l and 4.4 mM/l and 4.3 mM/l and 5.1 mM/l and 5.8 mM/l and 4.8 mM/l | Blood glucose, mean (healthy male Wistar rats [2]; [17]): 5.025 mM/l | Blood glucose, individual animals in duplicate (healthy male Wistar rats [2]; [18]): 5.2 mM/l and 4.8 mM/l and 5 mM/l (2×) and 5.3 mM/l (2×) and 6.3 mM/l and 6.1 mM/l | Blood glucose, mean (healthy male Wistar rats [2]; [18]): 5.375 mM/l | Blood glucose, individual animals in duplicate (healthy male Wistar rats [2]; [19]): 5.2 mM/l and 4.4 mM/l and 4.3 mM/l and 6.3 mM/l and 6.4 mM/l and 7.1 mM/l and 7 mM/l and 5.3 mM/l | Blood glucose, mean (healthy male Wistar rats [2]; [19]): 5.75 mM/l | Blood glucose, individual animals in duplicate (healthy male Wistar rats [2]; [20]): 5.8 mM/l (2×) and 3.4 mM/l and 3.2 mM/l and 6.4 mM/l and 6.8 mM/l and 8.5 mM/l and 8.2 mM/l | Blood glucose, mean (healthy male Wistar rats [2]; [20]): 6.0125 mM/l | Blood glucose, individual animals in duplicate (healthy male Wistar rats [2]; [21]): 6.7 mM/l (2×) and 2.7 mM/l and 2.6 mM/l and 7.4 mM/l and 7.7 mM/l and 9.1 mM/l and 8.6 mM/l | Blood glucose, mean (healthy male Wistar rats [2]; [21]): 6.4375 mM/l | Blood glucose, individual animals in duplicate (healthy male Wistar rats [2]; [22]): 7.4 mM/l and 1.4 mM/l and 1.3 mM/l and 7.7 mM/l (2×) and 7.9 mM/l and 7.6 mM/l and 7.5 mM/l | Blood glucose, mean (healthy male Wistar rats [2]; [22]): 6.0625 mM/l | Blood glucose, individual animals in duplicate (healthy male Wistar rats [2]; [23]): 6.7 mM/l and 7 mM/l and 6.8 mM/l and 4.6 mM/l and 4.8 mM/l and 6.9 mM/l | Blood glucose, mean (healthy male Wistar rats [2]; [23]): 6.133 mM/l | Effect on occurrence of hyperglycemia during the period of stress (healthy male Wistar rats [2]; first dose 16 to 24 h and second dose 3 h prior to stress): inhibited the occurrence of hyperglycemia | Effect on extent of hyperglycemia during the period of stress (healthy male Wistar rats [2]; single dose of BMOV 3 h prior to stress): reduced the extent of hyperglycemia considerably | Maximum average glucose level in the blood (healthy male Wistar rats [2]; [24]): about 6.4 mmol/l | Rise in blood glucose level (healthy male Wistar rats [2]; [24]): ≤ 28%

Source: patent publication US20200246352A1, “Vanadyl and vanadate for use in reducing stress-induced metabolic derangement” (CFM Pharma Holding B.V., priority 2017, published 2020)
